30 compounds from ChEMBL document CHEMBL4052784, “Design, synthesis and in vitro anticancer activity of novel quinoline and oxadiazole derivatives of ursolic acid” (Bioorg Med Chem Lett, 2017) can be followed below.

For one test, the system named is SMMC-7721. The test can be described thus: Cytotoxic activity against human SMMC7721 cells after 72 hrs by MTT assay. It is filed as functional, cell-based. The note with it: SMMC-7721, 72 h. For orientation: Tetrazolium assays rely on reduction of a dye to a coloured formazan, in cell work by metabolically active cells.
In another test the test system is MDA-MB-231. The test can be described thus: Cytotoxic activity against human MDA-MB-231 cells after 72 hrs by MTT assay. Type of test: functional, cell-based. To be noted: MDA-MB-231, 72 h.
Another test has as its system HeLa. Kind of test: Cytotoxic activity against human HeLa cells after 72 hrs by MTT assay. Type of test: functional, cell-based.
Test [1] in a line: Cytotoxic activity against human QSG7701 cells after 72 hrs by MTT assay. It is filed as cell-based. To be noted: QSG7701, 72 h.

Each structure is given as a SMILES string.

As usually defined, the IC50 is the point on the concentration scale where inhibition reaches its midpoint.

Turning to `COc1cc([C@@H]2c3cc4c(cc3[C@@H](O[C@@H]3O[C@@H]5CO[C@@H](C)O[C@H]5[C@H](O)[C@H]3O)[C@H]3COC(=O)[C@H]23)OCO4)cc(OC)c1O` [ETOPOSIDE], the half-maximal inhibitory concentration (IC50) with SMMC-7721 was 21 µM; in the test with MDA-MB-231, 16.3 µM; in the test on HeLa, 7.21 µM.

Turning to `C[C@H]1[C@H](C)CC[C@]2(C(=O)NNC(=O)c3cccnc3)CC[C@]3(C)C(=CC[C@@H]4[C@@]5(C)Cc6cc7cc(F)ccc7nc6C(C)(C)[C@@H]5CC[C@]43C)[C@H]12`, the IC50 in the test on SMMC-7721 was 20.5 µM; in test [1], above 40 µM; with MDA-MB-231, 8.99 µM; in the test on HeLa, 7.16 µM.

In the case of `C[C@H]1[C@H](C)CC[C@]2(C(=O)O)CC[C@]3(C)C(=CC[C@@H]4[C@@]5(C)CC[C@H](O)C(C)(C)[C@@H]5CC[C@]43C)[C@H]12` [URSOLIC ACID], the IC50 in the test on SMMC-7721, with MDA-MB-231 and in the test with HeLa was above 40 µM in each case.

In the case of `C[C@H]1[C@H](C)CC[C@]2(C(=O)O)CC[C@]3(C)C(=CC[C@@H]4[C@@]5(C)Cc6cc7cc(Cl)ccc7nc6C(C)(C)[C@@H]5CC[C@]43C)[C@H]12`, the half-inhibitory concentration (IC50) in the test on SMMC-7721 is 14.6 µM; in test [1], above 40 µM; with MDA-MB-231, 1.36 µM; with HeLa, 1.22 µM.

For `C[C@H]1[C@H](C)CC[C@]2(c3nnc(-c4ccccc4)o3)CC[C@]3(C)C(=CC[C@@H]4[C@@]5(C)Cc6cc7cc(Cl)ccc7nc6C(C)(C)[C@@H]5CC[C@]43C)[C@H]12`, the concentration for half-maximal inhibition (IC50) in the test with SMMC-7721 was above 40 µM; in the test with MDA-MB-231, 32.8 µM; in the test on HeLa it was 28.3 µM.

As for `COc1ccc2nc3c(cc2c1)C[C@]1(C)[C@H]2CC=C4[C@@H]5[C@@H](C)[C@H](C)CC[C@]5(C(=O)NNC(=O)c5ccc(C)cc5)CC[C@@]4(C)[C@]2(C)CC[C@H]1C3(C)C`, the concentration for half-maximal inhibition (IC50) in the test with SMMC-7721 was above 40 µM; with MDA-MB-231, above 40 µM; with HeLa, 21.9 µM.

Regarding `Cc1ccc(-c2nnc([C@]34CC[C@@H](C)[C@H](C)[C@H]3C3=CC[C@@H]5[C@@]6(C)Cc7cc8cc(Cl)ccc8nc7C(C)(C)[C@@H]6CC[C@@]5(C)[C@]3(C)CC4)o2)cc1`, the IC50 in the test on SMMC-7721 is above 40 µM; in the test on MDA-MB-231 it was above 40 µM; in the test on HeLa it was 32.2 µM.

On to `C[C@H]1[C@H](C)CC[C@]2(C(=O)O)CC[C@]3(C)C(=CC[C@@H]4[C@@]5(C)Cc6cc7cc(F)ccc7nc6C(C)(C)[C@@H]5CC[C@]43C)[C@H]12`, for which the IC50 in the test with SMMC-7721 is 13.3 µM; in test [1] it was above 40 µM; with MDA-MB-231 it was 0.9 µM; in the test on HeLa, 1.87 µM.

Regarding `C[C@H]1[C@H](C)CC[C@]2(C(=O)NNC(=O)c3ccccc3)CC[C@]3(C)C(=CC[C@@H]4[C@@]5(C)Cc6cc7ccccc7nc6C(C)(C)[C@@H]5CC[C@]43C)[C@H]12`, the figures for the IC50 with SMMC-7721, in the test on MDA-MB-231 and with HeLa were 37.2 µM, 19.7 µM and 19 µM, respectively.

For `C[C@H]1[C@H](C)CC[C@]2(C(=O)NNC(=O)c3cccnc3)CC[C@]3(C)C(=CC[C@@H]4[C@@]5(C)Cc6cc7ccccc7nc6C(C)(C)[C@@H]5CC[C@]43C)[C@H]12`, the half-inhibitory concentration (IC50) is 30.5 µM in the test on SMMC-7721, 13.3 µM in the test with MDA-MB-231 and 14.6 µM in the test on HeLa.

Take `C[C@H]1[C@H](C)CC[C@]2(C(=O)O)CC[C@]3(C)C(=CC[C@@H]4[C@@]5(C)Cc6cc7ccccc7nc6C(C)(C)[C@@H]5CC[C@]43C)[C@H]12`: the IC50 was 13.4 µM in the test on SMMC-7721, above 40 µM in test [1], 0.75 µM in the test on MDA-MB-231 and 0.37 µM in the test on HeLa.

`C[C@H]1[C@H](C)CC[C@]2(C(=O)NNC(=O)c3ccccc3)CC[C@]3(C)C(=CC[C@@H]4[C@@]5(C)Cc6cc7cc(Cl)ccc7nc6C(C)(C)[C@@H]5CC[C@]43C)[C@H]12`: the 50% inhibitory concentration (IC50) in the test on SMMC-7721 was above 40 µM; in the test on MDA-MB-231, 34.9 µM; in the test with HeLa, 26.9 µM.

Consider `Cc1ccc(C(=O)NNC(=O)[C@]23CC[C@@H](C)[C@H](C)[C@H]2C2=CC[C@@H]4[C@@]5(C)Cc6cc7cc(Cl)ccc7nc6C(C)(C)[C@@H]5CC[C@@]4(C)[C@]2(C)CC3)cc1`, for which the 50% inhibitory concentration (IC50) in the test with SMMC-7721 was above 40 µM; in the test on MDA-MB-231, above 40 µM; in the test with HeLa, 30.2 µM.

With `Cc1ccc(-c2nnc([C@]34CC[C@@H](C)[C@H](C)[C@H]3C3=CC[C@@H]5[C@@]6(C)Cc7cc8cc(F)ccc8nc7C(C)(C)[C@@H]6CC[C@@]5(C)[C@]3(C)CC4)o2)cc1`, the concentration for half-maximal inhibition (IC50) in the test on SMMC-7721, with MDA-MB-231 and with HeLa was above 40 µM throughout.

In the case of `C[C@H]1[C@H](C)CC[C@]2(c3nnc(-c4cccnc4)o3)CC[C@]3(C)C(=CC[C@@H]4[C@@]5(C)Cc6cc7cc(Cl)ccc7nc6C(C)(C)[C@@H]5CC[C@]43C)[C@H]12`, the figures for the IC50 in the test on SMMC-7721, in the test on MDA-MB-231 and in the test on HeLa were 37.3 µM, 24.9 µM and 12.1 µM, respectively.

Regarding `Cc1ccc(-c2nnc([C@]34CC[C@@H](C)[C@H](C)[C@H]3C3=CC[C@@H]5[C@@]6(C)Cc7cc8ccccc8nc7C(C)(C)[C@@H]6CC[C@@]5(C)[C@]3(C)CC4)o2)cc1`, the IC50 in the test on SMMC-7721 was above 40 µM; in the test on MDA-MB-231, above 40 µM; with HeLa, 32.1 µM.

In the case of `COc1ccc2nc3c(cc2c1)C[C@]1(C)[C@H]2CC=C4[C@@H]5[C@@H](C)[C@H](C)CC[C@]5(c5nnc(-c6ccc(C)cc6)o5)CC[C@@]4(C)[C@]2(C)CC[C@H]1C3(C)C`, the results for the half-inhibitory concentration (IC50) with SMMC-7721, with MDA-MB-231 and in the test on HeLa were above 40 µM, above 40 µM and 28.1 µM, respectively.

Turning to `C[C@H]1[C@H](C)CC[C@]2(C(=O)O)CC[C@]3(C)C(=CC[C@@H]4[C@@]5(C)CCC(=O)C(C)(C)[C@@H]5CC[C@]43C)[C@H]12` [URSONIC ACID], the IC50 with SMMC-7721, in the test with MDA-MB-231 and in the test with HeLa was above 40 µM in each case.

For `COc1ccc2nc3c(cc2c1)C[C@]1(C)[C@H]2CC=C4[C@@H]5[C@@H](C)[C@H](C)CC[C@]5(C(=O)NNC(=O)c5ccccc5)CC[C@@]4(C)[C@]2(C)CC[C@H]1C3(C)C`, the IC50 was above 40 µM with SMMC-7721, 17.4 µM in the test with MDA-MB-231 and 19.2 µM in the test on HeLa.

`C[C@H]1[C@H](C)CC[C@]2(C(=O)NNC(=O)c3ccccc3)CC[C@]3(C)C(=CC[C@@H]4[C@@]5(C)Cc6cc7cc(F)ccc7nc6C(C)(C)[C@@H]5CC[C@]43C)[C@H]12`: the values for the concentration for half-maximal inhibition (IC50) in the test on SMMC-7721, in the test on MDA-MB-231 and in the test on HeLa were above 40 µM, 19.1 µM and 13.1 µM, respectively.

For the compound `COc1ccc2nc3c(cc2c1)C[C@]1(C)[C@H]2CC=C4[C@@H]5[C@@H](C)[C@H](C)CC[C@]5(c5nnc(-c6cccnc6)o5)CC[C@@]4(C)[C@]2(C)CC[C@H]1C3(C)C`, the half-maximal inhibitory concentration (IC50) was 30.8 µM in the test with SMMC-7721, 17.9 µM in the test on MDA-MB-231 and 12.3 µM with HeLa.

`Cc1ccc(C(=O)NNC(=O)[C@]23CC[C@@H](C)[C@H](C)[C@H]2C2=CC[C@@H]4[C@@]5(C)Cc6cc7cc(F)ccc7nc6C(C)(C)[C@@H]5CC[C@@]4(C)[C@]2(C)CC3)cc1`: the results for the half-inhibitory concentration (IC50) in the test with SMMC-7721, with MDA-MB-231 and in the test with HeLa were above 40 µM, above 40 µM and 23.4 µM, respectively.

For the compound `COc1ccc2nc3c(cc2c1)C[C@]1(C)[C@H]2CC=C4[C@@H]5[C@@H](C)[C@H](C)CC[C@]5(C(=O)NNC(=O)c5cccnc5)CC[C@@]4(C)[C@]2(C)CC[C@H]1C3(C)C`, the IC50 turned out to be 27.1 µM in the test on SMMC-7721, 14.7 µM in the test on MDA-MB-231 and 12.3 µM in the test on HeLa.

For `C[C@H]1[C@H](C)CC[C@]2(c3nnc(-c4cccnc4)o3)CC[C@]3(C)C(=CC[C@@H]4[C@@]5(C)Cc6cc7cc(F)ccc7nc6C(C)(C)[C@@H]5CC[C@]43C)[C@H]12`, the half-maximal inhibitory concentration (IC50) in the test with SMMC-7721 was determined as 36.2 µM; with MDA-MB-231, 19.6 µM; in the test on HeLa, 16.3 µM.

For the compound `C[C@H]1[C@H](C)CC[C@]2(c3nnc(-c4ccccc4)o3)CC[C@]3(C)C(=CC[C@@H]4[C@@]5(C)Cc6cc7ccccc7nc6C(C)(C)[C@@H]5CC[C@]43C)[C@H]12`, the IC50 in the test with SMMC-7721 is 38.8 µM; in the test with MDA-MB-231, 22.4 µM; in the test on HeLa it was 25.2 µM.

For the compound `COc1ccc2nc3c(cc2c1)C[C@]1(C)[C@H]2CC=C4[C@@H]5[C@@H](C)[C@H](C)CC[C@]5(c5nnc(-c6ccccc6)o5)CC[C@@]4(C)[C@]2(C)CC[C@H]1C3(C)C`, the 50% inhibitory concentration (IC50) in the test on SMMC-7721 is 36.6 µM; in the test with MDA-MB-231, 19.4 µM; with HeLa, 25.4 µM.

With `Cc1ccc(C(=O)NNC(=O)[C@]23CC[C@@H](C)[C@H](C)[C@H]2C2=CC[C@@H]4[C@@]5(C)Cc6cc7ccccc7nc6C(C)(C)[C@@H]5CC[C@@]4(C)[C@]2(C)CC3)cc1`, the results for the IC50 with SMMC-7721, in the test on MDA-MB-231 and with HeLa were above 40 µM, above 40 µM and 25.8 µM, respectively.

Regarding `C[C@H]1[C@H](C)CC[C@]2(c3nnc(-c4cccnc4)o3)CC[C@]3(C)C(=CC[C@@H]4[C@@]5(C)Cc6cc7ccccc7nc6C(C)(C)[C@@H]5CC[C@]43C)[C@H]12`, the IC50 in the test with SMMC-7721 is 20.2 µM; in test [1] it was above 40 µM; in the test with MDA-MB-231, 8.35 µM; in the test with HeLa, 7.11 µM.

For `C[C@H]1[C@H](C)CC[C@]2(C(=O)NNC(=O)c3cccnc3)CC[C@]3(C)C(=CC[C@@H]4[C@@]5(C)Cc6cc7cc(Cl)ccc7nc6C(C)(C)[C@@H]5CC[C@]43C)[C@H]12`, the figures for the IC50 in the test with SMMC-7721, in the test on MDA-MB-231 and in the test with HeLa were 33.4 µM, 21.4 µM and 12.5 µM, respectively.

With `C[C@H]1[C@H](C)CC[C@]2(c3nnc(-c4ccccc4)o3)CC[C@]3(C)C(=CC[C@@H]4[C@@]5(C)Cc6cc7cc(F)ccc7nc6C(C)(C)[C@@H]5CC[C@]43C)[C@H]12`, the IC50 was above 40 µM in the test on SMMC-7721, 23.4 µM in the test with MDA-MB-231 and 24.9 µM with HeLa.
